Measured values taken from PMC8877822, “Interrogation of the Structure–Activity Relationship of a Lipophilic Nitroaromatic Prodrug Series Designed for Cancer Gene Therapy Applications” (Pharmaceuticals, 2022).

Columns and labels:
[1] = LogD7.4 by low-volume octanol/PBS shake-flask method; format: physicochemical; conditions: n-octanol/PBS; octanol-water partition coefficient, shake-flask method at pH 7.4
Experimental: Distribution ratios (LogD7.4) were determined by a low-volume octanol/PBS shake-flask method. Briefly, saturated solutions of octanol and PBS were prepared by mixing equal volumes of n-octanol and PBS (pH 7.4) before being left for three days. The octanol and PBS phases were then carefully separated and left to stand for at least 24 h. Stock solutions (0.1–0.5 mM) of each compound were prepared in octanol saturated with PBS. The stock solutions were diluted with octanol saturated with PBS containing and inter-assay control (acridone) to a final compound concentration of 50 μM. Aliquots (450 μL) were then taken in triplicate, and 450 μL of PBS saturated with octanol was added into amber tubes. The tubes were then sealed in parafilm and rotated for 90 min at 30 rpm to equilibrate. After centrifugation (15,000× g, 5 min, 20°C) the octanol and PBS phases were separated into different tubes and the octanol phase diluted with methanol (1:5 v/v). Both phases were analyzed by HPLC (diode-array detector at 364 ± 10 nm) by injecting 50 μL of the PBS phase and 15 μL of the diluted octanol phase. The results were then expressed as the log ratio of the peak areas obtained from the octanol and PBS phases corrected for dilution and injection volume.

[2] = system: 100% HCT116 AKR1C3 MCLs; assay: 3D multicellular layer (MCL) assay, 100% HCT116 AKR1C3; format: cell-based, human; conditions: 10 µM prodrug, five hours
Experimental: Similar to the 3D NfsA_Ec screen, increased lipophilicity also tracked with increased LCK in 100% AKR1C3-expressing MCLs (R = 0.78, R^2 = 0.61). […] These three lead compounds were taken forward into in vivo studies.
Multicellular layers (MCLs) were grown, and bystander effect assays were performed as previously reported.
Figure 4 Lipophilic structure–activity relationship for AKR1C3 in three dimensions. (A) Plating efficiency in 100% HCT116 WT and 100% HCT116 AKR1C3 MCLs exposed to 10 µM prodrug for five hours before dissociation and plating to determine clonogenic survival. (B) Correlation between Log cell kill and LogD7.4. R = 0.78, R^2 = 0.61. Log cell kill = Log CS (control)–Log CS (treated), where CS is the number of clonogenic survivors per MCL.

[3] = system: H1299 WT cells; assay: Anti-proliferative IC50 assay, H1299 WT cells; format: cell-based; conditions: Homo sapiens, NCI-H1299, 4 hour drug exposure, regrowth for five days
Experimental: (§1) The anti-proliferative IC50 was determined as the concentration of prodrug required for 50% inhibition of cell growth, following drug exposure for four hours, then five days regrowth in the absence of drug. Assays were performed under oxic or anoxic conditions as described previously, the latter by using a 5% H2/palladium catalyst scrubbed Bactron anaerobic chamber (Sheldon Manufacturing, Cornelius, OR, USA) to achieve severe anoxia (<10 ppm O2 gas phase) during prodrug exposure.
(§2) Supplementary Table S2. In vitro anti-proliferative activity of the three lead prodrug compounds in H1299 cells expressing E. coli NfsA. IC50 values were determined as the concentration of drug required to inhibit cell growth by 50% of untreated controls following 4 hour drug exposure, with washing and regrowth for five days.
(§3) Compound WT NfsA_Ec Ratio

[4] = system: H1299 cells expressing E. coli NfsA; assay: Anti-proliferative IC50 assay, H1299 cells expressing E. coli NfsA; format: cell-based
Experimental: as §1, §2, §3

[5] = target: T1, purified His6-tagged NfsA_Ec (Escherichia coli, UniProt P17117); assay: Steady-state kinetics of reduction by purified NfsA_Ec; format: biochemical, E. coli; conditions: apparent, measured at 250 µM NADPH
T1 construct: His6; made in house
T1 sequence (P17117 1-240): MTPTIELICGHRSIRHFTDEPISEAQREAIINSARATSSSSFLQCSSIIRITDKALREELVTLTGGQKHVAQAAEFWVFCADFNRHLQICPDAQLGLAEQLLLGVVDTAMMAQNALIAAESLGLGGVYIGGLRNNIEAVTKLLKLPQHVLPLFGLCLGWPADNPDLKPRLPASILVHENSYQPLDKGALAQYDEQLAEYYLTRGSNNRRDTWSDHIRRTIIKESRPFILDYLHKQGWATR
Source text: (§4) We next sought to characterize the NfsA_Ec-mediated conversion of lead prodrug 6 in steady-state kinetics assays using purified His6-tagged NfsA_Ec. […] We therefore conducted a preliminary assessment of whether alternative bacterial NTR enzymes might hold promise for further GDEPT improvements.
Supplementary Table S3. Steady-state kinetic parameters* for reduction of compound 6 and PR-104A by NfsA_Ec.
Compound Km (µM) kcat (s-1) kcat/Km (mM-1 s-1)
* Apparent kinetic parameters, measured at 250 µM NADPH
# As previously reported by
NfsA_Ec was purified as a His6-tagged recombinant protein as previously described. Kinetics assays were performed in 60 µl in UVettes (Eppendorf), using the 2 mm light path length. Reactions contained 10 mM Tris-Cl (pH 7.0), 4% DMSO, 0.25 mM NADPH and varying concentrations of PR - 104A or compound 6. Reactions were initiated by addition of 6 µl enzyme and changes in absorbance were measured for 20 s (during linearity). For calculation of Km and kcat, substrate concentrations were varied from ~0.2 x Km to 5 x Km. Molar extinction coefficients of 4,800 or 6,000 M-1 cm-1 were used for compound 6 and PR-104A, respectively. Non-linear regression analysis and Michaelis-Menten curve fitting was performed using Sigmaplot 10.0 (Systat Software Inc.).

[6] = system: 47 different NTR candidates; assay: GFP-SOS (DNA damage) response in E. coli SOS-R4 reporter strains expressing nitroreductase candidates; format: cell-based; conditions: 20 µM, six-hour exposure, library of E. coli reporter cells
Source text: as §4
Supplementary Figure S2. Identification of alternative nitroreductases able to activate compound 6. Bar graph displaying the fold-induction of GFP in the DNA-damage responsive E. coli reporter strain SOS-R4, following six-hour exposure to 20 µM of compound 6, compared with unchallenged replicates. Individual strains expressed nitroreductase candidates derived from different bacteria, identified by a two-letter suffix as explained in the Materials and Methods. The background SOS response induced by compound 6 in an empty plasmid control strain is indicated by the dashed line. […]
The GFP-SOS response was determined in SOS-R4 [16] by inoculating 200 μl aliquots of LBASG (lysogeny broth supplemented with 100 μgml-1 ampicillin, 50 μgml-1 spectinomycin and 0.2% glucose (w/v)) with selected SOS-R4 nitroreductase-over-expressing strains and incubating overnight at 30 °C, 200 rpm. […] Control and challenge plates were incubated at 30 °C, 200 rpm for 6 h, at which point OD600 and GFP fluorescence (excitation 490 nm/ emission 503 nm) were measured on an Enspire™ 2300 Multilabel Reader (Perkin Elmer, Waltham, MA). […]

[7] = system: mixed H1299 xenograft containing 28% NfsA_Ec cells and 72% WT cells; assay: Tumor growth delay assay, mixed H1299 xenograft; format: in vivo, mice; conditions: single i.p. dose: PR-104 388 µmol/kg; 1-P 1330 µmol/kg; 2-P 750 µmol/kg; 6-P 1330 µmol/kg
Experimental: These ratios were broadly similar to those observed in HCT116 cells (Figure 2). A mixed H1299 xenograft model containing a minority percentage (28 ± 3.3%) of NfsA_Ec-expressing cells was used in order to rank the efficacy of the prodrugs in vivo. A model such as this necessitates the presence of a robust bystander effect to achieve a tumor growth delay. Tumor-bearing mice were administered a single intraperitoneal dose of prodrugs 1-P, 2-P, and 6-P at the H1299 tumor-bearing MTD. PR-104 was administered at 388 µmol/kg, the human equivalent dose (HED) in mice that provides a plasma AUCfree of PR-104A (38 µM-h) that equates to the human Q3W MTD of 1100 mg/m^2 [22].
An estimated starting dose was determined from related compounds. Animals were promptly euthanized if body weight loss exceeded 20% or if there were clinical signs of severe morbidity. The MTD was defined as the highest dose, at which all animals survived (death rate < 1/6) with no unacceptable morbidity, and where the next dose increment had caused at least one death. Tumors were inoculated onto the flanks of NIH-III nude mice by subcutaneous injection of 10^7 H1299 cells. Tumor-bearing mice were randomized to treatment groups (n = 5 mice per group) when tumors reached treatment size (300–350 mm^3) and injected with a single intraperitoneal dose of pre-prodrug. Tumor size and body weights were measured regularly. Tumor volume was calculated as π(Lxw^2)/6, where L is the major axis and w is the perpendicular minor axis. Animals were euthanized when the tumor volume had increased fourfold relative to pre-treatment volume (RTV4, survival endpoint) or if body weight loss exceeded 20% of the pre-treatment value. Kaplan–Meier plots were constructed, and median time to endpoint was calculated. Treatment efficacy was assessed by comparing the median survival time with untreated animals using the Log-rank test p-test (Sigmaplot version 11.0).
Figure 5 In vivo efficacy of the three lead pre-prodrug compounds in a mixed H1299 xenograft containing 28% NfsA_Ec cells and 72% WT cells. (A) Tumor growth and (B) survival analysis of mice bearing 250 mm^3 H1299 tumors treated with a single intraperitoneal dose of prodrug on day 0. N = 5 animals per group. Control = PBS, PR-104 = 388 µmol/kg; 1-P = 1330 μmol/kg; 2-P = 750 μmol/kg; and 6-P = 1330 μmol/kg. Survival endpoint was 4× start volume (RTV4).

[8] = system: SiHa xenografts; assay: Tumor excision assay, clonogenic cell kill of SiHa xenografts; format: in vivo, mice; conditions: 18 h after treatment, PR-104 380 µmol/kg i.p., 6-P 1330 µmol/kg i.p.
Experimental: The sensitivity of four cancer cell lines to prodrug 6 was determined under aerobic or anoxic conditions using an anti-proliferative IC50 assay. […] We also evaluated the hypoxic activity of 6-P versus PR-104 in vivo using a SiHa xenograft model (Figure 6B).
When tumors reached treatment size (>400 mm^3), mice were treated with drug by a single intraperitoneal injection of pre-prodrug or vehicle. Mice treated with ionizing radiation were exposed to 10 Gray prior to drug treatment, using a cobalt-60 source from an Eldorado G unit. Animals were euthanized 18 h after drug treatment, and tumors were excised and homogenized using sterile scissors until a fine mince was obtained. Following enzymatic dissociation (2.5 mg/mL pronase, 1 mg/mL collagenase, and 0.2 mg/mL DNAase in αMEM + 10% FBS + 1% P/S, 1 mL per 50 mg), cells were plated at concentrations of 10^2–10^5 cells per 60 mm dish and grown for 10 days before colonies were stained with methylene blue (2 g/L in 50% aqueous alcohol). Colonies containing >50 cells were counted as clonogenic survivors. From these values, plating efficiency (colonies/cells plated), number of clonogens per gram of tumor tissue (plating efficiency × total cells), and log cell kill relative to vehicle treated controls (log clonogens per gram) were calculated. Statistical analysis was undertaken using Holm–Sidak’s one-way ANOVA (Sigmaplot version 11.0).
(A) In vitro anti-proliferative activity of 6 in various cancer cell lines under aerobic and anoxic conditions. IC50 values were determined as the concentration of drug required to inhibit cell growth by 50% of untreated controls following 4 h drug exposure and five days regrowth (mean ±SEM of three or more independent determinations). (B) Clonogenic cell kill of SiHa xenografts 18 h after treatment with hypoxia activated prodrugs PR-104 (380 µmol/kg, i.p.) or 6-P (1330 µmol/kg, i.p.) with or without 10 Gy radiation.

[9] = cited from earlier work

SMILES	logD at 90 min [1]	Log cell kill (LCK) [2]	IC50 [3] [µM]	IC50 ([4]; Escherichia coli, NCI-H1299, H1299 NfsA_Ec, 4 hour drug exposure, regrowth for five days) [µM]	WT:NfsA_Ec IC50 ratio ([4]; H1299 WT vs H1299 NfsA_Ec) [fold]	kcat [5] [s⁻¹]	Activation of the SOS (DNA damage repair) response [6]	Tumor growth delay (median time to RTV4) compared to untreated controls [7] [%]	Log cell kill, in combination with radiotherapy ([8]; 10 Gy radiation)	Log cell kill, single agent [8]	Human Q3W MTD [9] [mg/m^2]
CCS(=O)(=O)c1cc([N+](=O)[O-])c(C(=O)N(C)CCO)cc1N(CCBr)CCBr [Compound 6, 5-(Bis(2-bromoethyl)amino)-N-(2-hydroxyethyl)-N-methyl-4-(ethylsulfonyl)-2-nitrobenzamide]	1.6	≤ 0.11	222 ± 39	0.47 ± 0.1	472	5.5 ± 0.3	broadly activated by members of both the NfsA and NfsB nitroreductase families				
CS(=O)(=O)OCCN(CCBr)c1c(C(=O)NCCOP(=O)(O)O)cc([N+](=O)[O-])cc1[N+](=O)[O-] [PR-104, 2-[(2-bromoethyl)-2,4-dinitro-6-[[[2-(phosphonooxy)ethyl]amino]carbonyl]anilino]ethyl methanesulfonate, reference compound]								33	3.72	1.38	1100
